Measurements published in patent US9499535B2, “Kinase inhibitors” (ORIGENIS GMBH, priority 2011, dated 2016).

How the values were obtained:
LRRK2 = LRRK2 (Homo sapiens, UniProt Q5S007); assay: LRRK2 assay (LanthaScreen Eu Kinase Binding Assay); settings: 5 nM LRRK2, 10 nM tracer 236, RT 1 h; read-out: LRRK2 Activites: IC50
Excerpt: Binding of the tracer to the kinase is detected using a europium-labeled anti-tag antibody, which binds to the kinase of interest. […] Binding of an inhibitor to the kinase competes for binding with the tracer, resulting in a loss of FRET. The fluorescence intensity ratio is directly proportional to the amount of peptide phosphorylation.
The inhibitor concentration was plotted versus the emission ratio to determine the IC50 using XLFit 5.0 (IDBS, Guildford) to fit to a sigmoidal dose response curve with a variable slope.

SYK kinase = molecular target: T1, SYK kinase (Homo sapiens, UniProt P43405); assay: SYK assay (OMNIA Kinase Assay, Invitrogen); assay type: biochemical; settings: apparent Ki calculated from the IC50 using the Cheng-Prusoff equation; 1 mM ATP, 10 μM Peptide Substrate; read-out: SYK Activities: Ki
T1 construct: purchased Invitrogen, Carlsbad
In short: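 Continuous SOX-fluorescence (Omnia) readout of Tyr 7 peptide (10 μM) phosphorylation with 1 mM ATP and 0.2 mM DTT at 30° C, started by SYK addition. Fluorescence (λex 360/λem 485 nm) was read every 30 s for 30 min. IC50 from velocity vs concentration; apparent Ki via Cheng-Prusoff.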

LRRK2, sequence (Q5S007 970-2527 limits assumed): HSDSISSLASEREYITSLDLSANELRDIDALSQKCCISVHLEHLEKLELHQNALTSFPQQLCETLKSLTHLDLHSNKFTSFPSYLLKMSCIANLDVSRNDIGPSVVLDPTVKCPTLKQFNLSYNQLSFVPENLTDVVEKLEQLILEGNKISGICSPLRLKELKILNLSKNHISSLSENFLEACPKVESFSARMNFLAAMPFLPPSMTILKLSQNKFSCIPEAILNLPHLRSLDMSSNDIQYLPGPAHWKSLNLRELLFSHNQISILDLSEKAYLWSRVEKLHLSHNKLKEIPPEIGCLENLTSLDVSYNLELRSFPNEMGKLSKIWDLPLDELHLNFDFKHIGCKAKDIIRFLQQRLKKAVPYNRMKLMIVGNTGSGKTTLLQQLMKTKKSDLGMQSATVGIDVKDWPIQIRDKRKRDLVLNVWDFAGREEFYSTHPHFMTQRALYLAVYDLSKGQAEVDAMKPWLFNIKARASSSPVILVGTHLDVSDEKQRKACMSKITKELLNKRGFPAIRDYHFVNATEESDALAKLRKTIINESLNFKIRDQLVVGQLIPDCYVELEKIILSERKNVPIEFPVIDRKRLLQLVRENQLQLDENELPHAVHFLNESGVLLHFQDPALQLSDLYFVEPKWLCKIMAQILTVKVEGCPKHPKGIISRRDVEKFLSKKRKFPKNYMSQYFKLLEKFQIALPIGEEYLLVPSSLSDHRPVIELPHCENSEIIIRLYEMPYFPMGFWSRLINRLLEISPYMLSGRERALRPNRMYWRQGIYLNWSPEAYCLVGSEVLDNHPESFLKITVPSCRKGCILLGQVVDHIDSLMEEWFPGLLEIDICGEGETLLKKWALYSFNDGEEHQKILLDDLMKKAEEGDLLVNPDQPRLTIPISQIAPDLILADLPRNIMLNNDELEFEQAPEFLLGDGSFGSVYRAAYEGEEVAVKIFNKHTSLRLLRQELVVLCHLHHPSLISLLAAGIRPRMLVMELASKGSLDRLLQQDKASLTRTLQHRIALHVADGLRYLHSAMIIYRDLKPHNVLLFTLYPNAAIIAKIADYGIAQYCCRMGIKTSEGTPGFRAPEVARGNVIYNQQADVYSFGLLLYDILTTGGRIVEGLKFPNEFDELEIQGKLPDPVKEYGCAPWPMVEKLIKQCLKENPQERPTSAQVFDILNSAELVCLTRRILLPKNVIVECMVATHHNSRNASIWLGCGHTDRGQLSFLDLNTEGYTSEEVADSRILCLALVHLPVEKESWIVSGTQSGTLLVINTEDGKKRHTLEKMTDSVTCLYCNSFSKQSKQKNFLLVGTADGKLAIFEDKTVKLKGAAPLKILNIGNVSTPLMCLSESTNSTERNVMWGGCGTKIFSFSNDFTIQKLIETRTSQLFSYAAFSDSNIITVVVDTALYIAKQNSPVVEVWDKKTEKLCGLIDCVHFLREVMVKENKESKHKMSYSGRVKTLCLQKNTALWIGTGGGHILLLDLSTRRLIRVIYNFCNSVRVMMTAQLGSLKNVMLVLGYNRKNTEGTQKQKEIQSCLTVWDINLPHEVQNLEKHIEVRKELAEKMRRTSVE

IC50 (LRRK2) [nM]	Ki (SYK kinase) [nM]	Compound
100 to 1000	10 to 100	CCOc1ccc(Nc2nc3ccc(OC)cc3c3cn[nH]c23)cc1OC [Example #105, (4-Ethoxy-3-methoxy-phenyl)-(8-methoxy-3H-pyrazolo[3,4-c]quinolin-4-yl)-amine]
100 to 1000	10 to 100	COc1ccc2nc(Nc3cc[nH]n3)c3n[nH]cc3c2c1 [Example #66, (8-Methoxy-2H-pyrazolo[3,4-c]quinolin-4-yl)-(1H-pyrazol-3-yl)-amine]
100 to 1000	10 to 100	Ic1ccc2nc(Nc3ccc(N4CCOCC4)cc3)c3[nH]ncc3c2c1 [Example #355, 8-iodo-N-(4-morpholinophenyl)-3H-pyrazolo[3,4-c]quinolin-4-amine]
100 to 1000	< 10	COc1ccc2c(c1)nc(Nc1ccc(N3CCOCC3)cc1)c1n[nH]cc12 [Example #177, (7-Methoxy-2H-pyrazolo[3,4-c]quinolin-4-yl)-(4-morpholin-4-yl-phenyl)-amine]
100 to 1000	10 to 100	Brc1ccc2nc(Nc3ccc4[nH]ncc4c3)c3n[nH]cc3c2c1 [Example #45, (8-Bromo-2H-pyrazolo[3,4-c]quinolin-4-yl)-(1H-indazol-5-yl)-amine]
100 to 1000	100 to 1000	COc1ccc2nc(Nc3ccc4oc(=O)[nH]c4c3)c3[nH]ncc3c2c1 [Example #108, 5-(8-Methoxy-3H-pyrazolo[3,4-c]quinolin-4-ylamino)-3H-benzooxazol-2-one]
100 to 1000	10 to 100	COc1ccc2nc(Nc3ccc4c(c3)n(C)c(=O)n4C)c3n[nH]cc3c2c1 [Example #189, 5-(8-Methoxy-2H-pyrazolo[3,4-c]quinolin-4-ylamino)-1,3-dimethyl-1,3-dihydro-benzoimidazol-2-one]
100 to 1000	10 to 100	COc1cccc2c1nc(Nc1ccc(N3CCOCC3)cc1)c1[nH]ncc12 [Example #170, (6-Methoxy-2H-pyrazolo[3,4-c]quinolin-4-yl)-(4-morpholin-4-yl-phenyl)-amine]
100 to 1000	100 to 1000	COc1ccc2nc(Nc3ccc(C(O)(C(F)(F)F)C(F)(F)F)cc3)c3n[nH]cc3c2c1 [Example #321, 1,1,1,3,3,3-hexafluoro-2-(4-((8-methoxy-2H-pyrazolo[3,4-c]quinolin-4-yl)amino)phenyl)propan-2-ol]
100 to 1000	10 to 100	COc1ccc2nc(Nc3cccc(O)c3)c3[nH]ncc3c2c1 [Example #113, 3-(8-Methoxy-3H-pyrazolo[3,4-c]quinolin-4-ylamino)-phenol]
100 to 1000	10 to 100	COc1ccc2nc(Nc3ccc4c(c3)OCCO4)c3n[nH]cc3c2c1 [Example #101, (2,3-Dihydro-benzo[1,4]dioxin-6-yl)-(8-methoxy-2H-pyrazolo[3,4-c]quinolin-4-yl)-amine]
10 to 100	10 to 100	COc1ccc2nc(Nc3ccc4c(c3)NCCO4)c3[nH]ncc3c2c1 [Example #109, (3,4-Dihydro-2H-benzo[1,4]oxazin-6-yl)-(8-methoxy-3H-pyrazolo[3,4-c]quinolin-4-yl)-amine]
10 to 100	10 to 100	COc1ccc2nc(Nc3ccc(N4CCOCC4)cc3)c3n[nH]cc3c2c1 [Example #54, (8-Methoxy-2H-pyrazolo[3,4-c]quinolin-4-yl)-(4-morpholin-4-yl-phenyl)-amine]
100 to 1000	10 to 100	COc1ccc2c(c1)nc(Nc1ccc(OC)c(OC)c1)c1n[nH]cc12 [Example #175, (3,4-Dimethoxy-phenyl)-(7-methoxy-2H-pyrazolo[3,4-c]quinolin-4-yl)-amine]
100 to 1000	< 10	COc1ccc2nc(Nc3ccc4cnn(C)c4c3)c3n[nH]cc3c2c1 [Example #40, (8-Methoxy-2H-pyrazolo[3,4-c]quinolin-4-yl)-(1-methyl-1H-indazol-6-yl)-amine]
100 to 1000	100 to 1000	COc1ccc2nc(Nc3cccc(S(=O)(=O)CCO)c3)c3n[nH]cc3c2c1 [Example #351, 2-((3-((8-methoxy-2H-pyrazolo[3,4-c]quinolin-4-yl)amino)phenyl)sulfonyl)ethan-1-ol]
